Laboratory results as given in ChEMBL document CHEMBL4819146, “Optimization of physicochemical properties of pyridone-based EP3 receptor antagonists” (Bioorg Med Chem Lett, 2021).

Assays:
[1] = AUC in Sprague-Dawley rat at 20 mg/kg, po; assay type: ADME, organism-based; parameters: dose 20 mg/kg; conditions: in vivo
[2] = Volume of distribution at steady state in Sprague-Dawley rat at 2 mg/kg, iv; assay type: ADME, organism-based; conditions: in vivo, read-out: Vdss
[3] = Apparent permeability from apical to basolateral side in dog MDCK cells; assay type: ADME, cell-based, Canis lupus familiaris
[4] = Cmax in Sprague-Dawley rat at 20 mg/kg, po; assay type: ADME, organism-based; parameters: route oral, dose 20 mg/kg; conditions: in vivo
[5] = Oral bioavailability in Sprague-Dawley rat at 20 mg/kg; assay type: ADME, organism-based; conditions: in vivo

AUC [1] | Vd [2] | Papp A→B [3] | Cmax [4] | F [5] | SMILES
15775 ng·h/mL | 0.21 L/kg | 25.3 ×10⁻⁶ cm/s | 6960 ng/mL | 47.8% | CC(C)C(c1noc(=O)[nH]1)c1ccc(-c2ccc3cccc(F)c3c2)[nH]c1=O (configuration not stated)
59653 ng·h/mL | 0.5 L/kg |  | 5120 ng/mL | 81.6% | CCn1ncc2c(F)cc(-c3ccc(C(CC)(CC)c4nnc[nH]4)c(=O)[nH]3)cc21
4242 ng·h/mL | 1.98 L/kg |  | 409 ng/mL |  | CC(C)C(c1nnc[nH]1)c1ccc(-c2ccc3cccc(F)c3c2)[nH]c1=O (configuration not stated)
